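The concentration for 50% growth inhibition is given as GI50. At the TGI there is no net growth.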
Assays:
Assay in all cases: inhibition of tumour cell growth, NCI panel, 384-well format
UACC-62 melanoma = tested on: UACC-62 melanoma
NCI-H322M lung = tested on: NCI-H322M lung
MDA-MB-435 melanoma = tested on: MDA-MB-435 melanoma
M14 melanoma = tested on: M14 melanoma
SNB-19 CNS = tested on: SNB-19 CNS
RPMI-8226 leukemia = tested on: RPMI-8226 leukemia
OVCAR-5 ovarian = tested on: OVCAR-5 ovarian
OVCAR-3 ovarian = tested on: OVCAR-3 ovarian
SN12C renal = tested on: SN12C renal
786-0 renal = tested on: 786-0 renal
CCRF-CEM leukemia = tested on: CCRF-CEM leukemia
NCI-H226 lung = tested on: NCI-H226 lung
SF-295 CNS = tested on: SF-295 CNS
SNB-75 CNS = tested on: SNB-75 CNS
NCI-H23 lung = tested on: NCI-H23 lung
A549 NSCLC = tested on: A549 NSCLC
MOLT-4 leukemia = tested on: MOLT-4 leukemia
EKVX NSCLC = tested on: EKVX NSCLC
SR leukemia = tested on: SR leukemia
HOP-92 NSCLC = tested on: HOP-92 NSCLC
TK-10 renal = tested on: TK-10 renal
HOP-62 NSCLC = tested on: HOP-62 NSCLC
KM12 colon = tested on: KM12 colon
UACC-257 melanoma = tested on: UACC-257 melanoma
SK-MEL-28 melanoma = tested on: SK-MEL-28 melanoma
BT-549 breast = tested on: BT-549 breast
PC-3 prostate = tested on: PC-3 prostate
NCI/ADR-RES ovarian = tested on: NCI/ADR-RES ovarian
HCT-15 colon = tested on: HCT-15 colon
RXF 393 renal = tested on: RXF 393 renal
SK-MEL-5 melanoma = tested on: SK-MEL-5 melanoma
HCT-116 colon = tested on: HCT-116 colon
COLO 205 colon = tested on: COLO 205 colon
CAKI-1 renal = tested on: CAKI-1 renal
K-562 leukemia = tested on: K-562 leukemia
HS 578T breast = tested on: HS 578T breast
OVCAR-8 ovarian = tested on: OVCAR-8 ovarian
MALME-3M melanoma = tested on: MALME-3M melanoma
SW-620 colon = tested on: SW-620 colon
IGROV1 ovarian = tested on: IGROV1 ovarian
LOX IMVI melanoma = tested on: LOX IMVI melanoma
DU-145 prostate = tested on: DU-145 prostate
A498 renal = tested on: A498 renal
HCC-2998 colon = tested on: HCC-2998 colon
HT29 colon = tested on: HT29 colon
MDA-MB-468 breast = tested on: MDA-MB-468 breast
SF-268 CNS = tested on: SF-268 CNS
ACHN renal = tested on: ACHN renal
SF-539 CNS = tested on: SF-539 CNS
OVCAR-4 ovarian = tested on: OVCAR-4 ovarian
U251 glioblastoma = tested on: U251 glioblastoma
MDA-MB-231 breast = tested on: MDA-MB-231 breast
NCI-H522 lung = tested on: NCI-H522 lung
MCF7 breast = tested on: MCF7 breast
NCI-H460 NSCLC = tested on: NCI-H460 NSCLC
HL-60(TB) leukemia = tested on: HL-60(TB) leukemia
SK-MEL-2 melanoma = tested on: SK-MEL-2 melanoma
T-47D breast = tested on: T-47D breast
SK-OV-3 ovarian = tested on: SK-OV-3 ovarian

SMILES: N#Cc1ccc(-c2c(-c3ncn[nH]3)sc(N3CCOCC3)c2C#N)c(F)c1
- GI50 (UACC-62 melanoma): 1.01 µM
- TGI (UACC-62 melanoma): 10.8 µM
- GI50 (NCI-H322M lung): 1.32 µM
- TGI (NCI-H322M lung): 5.36 µM
- GI50 (MDA-MB-435 melanoma): 2.47 µM
- TGI (MDA-MB-435 melanoma): 19.5 µM
- GI50 (M14 melanoma): 2.95 µM
- TGI (M14 melanoma): 31.8 µM
- GI50 (SNB-19 CNS): 14.7 µM
- TGI (SNB-19 CNS): > 70.8 µM
- GI50 (RPMI-8226 leukemia): 1.82 µM
- TGI (RPMI-8226 leukemia): 5.06 µM
- GI50 (OVCAR-5 ovarian): 1.01 µM
- TGI (OVCAR-5 ovarian): 26.1 µM
- GI50 (OVCAR-3 ovarian): 0.837 µM
- TGI (OVCAR-3 ovarian): 5.83 µM
- GI50 (SN12C renal): 0.145 µM
- TGI (SN12C renal): 3.77 µM
- GI50 ([…]-0 renal): 2.13 µM
- TGI (786-0 renal): 11.5 µM
- GI50 (CCRF-CEM leukemia): 2.21 µM
- TGI (CCRF-CEM leukemia): 9.61 µM
- GI50 (NCI-H226 lung): 2.01 µM
- TGI (NCI-H226 lung): 17.3 µM
- GI50 (SF-295 CNS): 1.24 µM
- TGI (SF-295 CNS): 15.7 µM
- GI50 (SNB-75 CNS): 0.32 µM
- GI50 (NCI-H23 lung): 2.35 µM
- TGI (NCI-H23 lung): > 55.3 µM
- GI50 (A549 NSCLC): 1.35 µM
- TGI (A549 NSCLC): 11.8 µM
- GI50 (MOLT-4 leukemia): 0.413 µM
- TGI (MOLT-4 leukemia): 1.71 µM
- GI50 (EKVX NSCLC): 0.368 µM
- TGI (EKVX NSCLC): 3.44 µM
- GI50 (SR leukemia): 0.763 µM
- TGI (SR leukemia): 2.57 µM
- GI50 (HOP-92 NSCLC): 1.16 µM
- TGI (HOP-92 NSCLC): > 33 µM
- GI50 (TK-10 renal): 0.789 µM
- TGI (TK-10 renal): 9.59 µM
- GI50 (HOP-62 NSCLC): 3.4 µM
- TGI (HOP-62 NSCLC): 21 µM
- GI50 (KM12 colon): 3.64 µM
- TGI (KM12 colon): 20.3 µM
- GI50 (UACC-257 melanoma): 2.51 µM
- TGI (UACC-257 melanoma): 15.1 µM
- GI50 (SK-MEL-28 melanoma): 1.76 µM
- TGI (SK-MEL-28 melanoma): > 67.9 µM
- GI50 (BT-549 breast): 1.95 µM
- TGI (BT-549 breast): 12.8 µM
- GI50 (PC-3 prostate): 0.641 µM
- TGI (PC-3 prostate): 8.87 µM
- GI50 (NCI/ADR-RES ovarian): 5.53 µM
- TGI (NCI/ADR-RES ovarian): 63.6 µM
- GI50 (HCT-15 colon): 1.69 µM
- TGI (HCT-15 colon): 15.9 µM
- GI50 (RXF 393 renal): 1.27 µM
- TGI (RXF 393 renal): 7.45 µM
- GI50 (SK-MEL-5 melanoma): 1.77 µM
- TGI (SK-MEL-5 melanoma): 10 µM
- GI50 (HCT-116 colon): 1.52 µM
- TGI (HCT-116 colon): 38.5 µM
- GI50 (COLO 205 colon): 1.65 µM
- TGI (COLO 205 colon): 17.4 µM
- GI50 (CAKI-1 renal): 0.557 µM
- TGI (CAKI-1 renal): 13.2 µM
- GI50 (K-562 leukemia): 6.27 µM
- TGI (K-562 leukemia): > 100 µM
- GI50 (HS 578T breast): 0.779 µM
- TGI (HS 578T breast): 16 µM
- GI50 (OVCAR-8 ovarian): 3.52 µM
- TGI (OVCAR-8 ovarian): > 60.2 µM
- GI50 (MALME-3M melanoma): 0.95 µM
- TGI (MALME-3M melanoma): 6.92 µM
- GI50 (SW-620 colon): 4.94 µM
- TGI (SW-620 colon): 23.6 µM
- GI50 (IGROV1 ovarian): 0.191 µM
- TGI (IGROV1 ovarian): 0.631 µM
- GI50 (LOX IMVI melanoma): 1.93 µM
- TGI (LOX IMVI melanoma): 13.5 µM
- GI50 (DU-145 prostate): 1.91 µM
- TGI (DU-145 prostate): 15.1 µM
- GI50 (A498 renal): 0.577 µM
- TGI (A498 renal): 2.67 µM
- GI50 (HCC-2998 colon): 1.23 µM
- TGI (HCC-2998 colon): 10.8 µM
- GI50 (HT29 colon): 0.9 µM
- TGI (HT29 colon): 17.9 µM
- GI50 (MDA-MB-468 breast): 0.54 µM
- TGI (MDA-MB-468 breast): 2.68 µM
- GI50 (SF-268 CNS): 4.1 µM
- TGI (SF-268 CNS): 33 µM
- GI50 (ACHN renal): 0.525 µM
- TGI (ACHN renal): 14.2 µM
- GI50 (SF-539 CNS): 1.7 µM
- TGI (SF-539 CNS): 20 µM
- GI50 (OVCAR-4 ovarian): 1.96 µM
- TGI (OVCAR-4 ovarian): 22.1 µM
- GI50 (U251 glioblastoma): 7.2 µM
- TGI (U251 glioblastoma): > 80.6 µM
- GI50 (MDA-MB-231 breast): 5.88 µM
- TGI (MDA-MB-231 breast): > 62.6 µM
- GI50 (NCI-H522 lung): 1.98 µM
- TGI (NCI-H522 lung): 17.3 µM
- GI50 (MCF7 breast): 0.222 µM
- TGI (MCF7 breast): 20.6 µM
- GI50 (NCI-H460 NSCLC): 0.68 µM
- TGI (NCI-H460 NSCLC): 11.4 µM
- GI50 (HL-60(TB) leukemia): 0.209 µM
- TGI (HL-60(TB) leukemia): 1.44 µM
- GI50 (SK-MEL-2 melanoma): 2.64 µM
- TGI (SK-MEL-2 melanoma): 12.6 µM
- GI50 (T-47D breast): 0.152 µM
- TGI (T-47D breast): 2.54 µM
- GI50 (SK-OV-3 ovarian): 0.315 µM
- TGI (SK-OV-3 ovarian): 5.89 µM

Source: PubChem BioAssay (NCI)
